Structures are written as SMILES. Read-outs that look alike come from different tables or passages of the source.

Data on two molecules can be found in patent US12252524B2, “GIP/GLP1 co-agonist compounds” (Eli Lilly and Company, priority 2018, dated 2025).

The target of assay [1] is T1, human GLP-1R (Homo sapiens, UniProt P43220). Briefly: GLP-1R CHO cell β-arrestin recruitment assay. In kind it is cell-based. The arrangement: host or cells: CHO-K1 PathHunter cells, assay-ready frozen. In short, it runs like this: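 PathHunter CHO-K1 cells with ProLink-tagged human GLP-1R and enzyme-acceptor-tagged β-arrestin-2 treated with serially diluted peptides in assay buffer containing 0.1% hydrolyzed casein, 90 min at 37 °C.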
T1 sequence (P43220 24-463): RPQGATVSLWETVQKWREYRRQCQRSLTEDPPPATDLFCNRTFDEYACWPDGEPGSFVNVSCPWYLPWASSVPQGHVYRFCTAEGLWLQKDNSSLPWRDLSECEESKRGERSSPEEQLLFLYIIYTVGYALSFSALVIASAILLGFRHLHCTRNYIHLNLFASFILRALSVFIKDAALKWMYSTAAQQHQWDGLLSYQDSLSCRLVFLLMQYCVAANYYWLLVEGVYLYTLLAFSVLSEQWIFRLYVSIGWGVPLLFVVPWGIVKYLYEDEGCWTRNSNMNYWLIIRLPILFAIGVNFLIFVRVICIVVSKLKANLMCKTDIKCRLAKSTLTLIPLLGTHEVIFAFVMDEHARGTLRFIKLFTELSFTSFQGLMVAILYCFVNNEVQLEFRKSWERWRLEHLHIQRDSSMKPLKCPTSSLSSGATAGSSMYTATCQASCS
(Recruitment of arrestin is a read-out of receptor activation apart from second messengers.)

In the next assay the target is T2, human Gcg receptor (Homo sapiens, UniProt P47871).
T2 construct: expressed in transfected cells; crude membranes
T2 sequence (P47871 26-477): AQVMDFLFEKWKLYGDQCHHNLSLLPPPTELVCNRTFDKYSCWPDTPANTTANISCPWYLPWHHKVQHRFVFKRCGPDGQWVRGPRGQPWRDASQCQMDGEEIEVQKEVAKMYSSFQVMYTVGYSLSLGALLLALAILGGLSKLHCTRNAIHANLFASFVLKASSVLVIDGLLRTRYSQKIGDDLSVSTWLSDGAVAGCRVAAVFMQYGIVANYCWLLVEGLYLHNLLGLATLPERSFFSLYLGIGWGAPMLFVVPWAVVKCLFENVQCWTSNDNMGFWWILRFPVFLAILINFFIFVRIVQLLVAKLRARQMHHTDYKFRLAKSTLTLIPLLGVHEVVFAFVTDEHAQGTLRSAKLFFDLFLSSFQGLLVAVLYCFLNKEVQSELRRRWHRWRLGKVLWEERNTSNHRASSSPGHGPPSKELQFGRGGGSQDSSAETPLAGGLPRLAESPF
Briefly: [125I]-Glucagon binding (SPA), human Gcg receptor. In short, it runs like this:
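Scintillation counts are taken after membranes and WGA beads incubate and settle for 12 hours at room temperature. Buffer is 25 mM HEPES, pH 7.4, with CaCl2, MgCl2, bacitracin and Tween-20. Ki values, from four-parameter IC50 fits, are geometric means over independent days.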

Assay [2] deals with T1, human GLP-1R. The experiment in a line: [125I]-GLP-1 binding (SPA), human GLP-1 receptor. Also noted: expressed in transfected cells; crude membranes. In short, it runs like this: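 Membranes: hypotonic lysis (50 mM Tris HCl, pH 7.5, protease inhibitors), Potter-Elvehjem homogenization, high-speed pellet (35000×g 1 h or 25000×g 30 min, 4° C.). Buffer: 25 mM HEPES pH 7.4, 2.5 mM CaCl2, 1 mM MgCl2. Four-parameter IC50 fit; Ki as geometric mean ± SEM.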

The next assay deals with T3, human GIP receptor (Homo sapiens, UniProt P48546).
T3 construct: expressed in transfected cells; crude membranes
T3 sequence (P48546 22-466): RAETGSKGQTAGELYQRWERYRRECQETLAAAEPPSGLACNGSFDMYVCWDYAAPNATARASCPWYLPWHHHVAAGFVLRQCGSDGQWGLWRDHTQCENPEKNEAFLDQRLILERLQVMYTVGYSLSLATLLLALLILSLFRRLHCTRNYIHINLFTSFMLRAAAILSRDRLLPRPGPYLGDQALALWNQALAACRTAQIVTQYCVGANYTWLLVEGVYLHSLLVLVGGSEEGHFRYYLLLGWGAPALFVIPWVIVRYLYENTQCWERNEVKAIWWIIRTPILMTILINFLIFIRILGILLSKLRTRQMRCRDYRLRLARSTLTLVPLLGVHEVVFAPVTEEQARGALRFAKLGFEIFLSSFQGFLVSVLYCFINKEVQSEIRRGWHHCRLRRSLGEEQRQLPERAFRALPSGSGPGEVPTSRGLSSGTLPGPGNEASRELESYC
The experiment in a line: [125I]-GIP binding (SPA), human GIP receptor.

Assay [3] concerns the target human GLP-1 receptor (GLP-1R) (Homo sapiens, UniProt P43220). The experiment in a line: cAMP pharmacological functional assay in presence of casein, hGLP-1R. In kind it is cell-based.
Assay [4] has as its target T1, human GLP-1R. Briefly: GLP-1R HEK293 cell membrane [35S]GTPγS binding assay. In kind it is biochemical. The arrangement: expressed in transfected cells; host or cells: HEK293 cells expressing human GLP-1R; membranes. In short, it runs like this:
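Membranes from HEK293 cells expressing the receptor incubated with peptide and […] [35S]GTPγS in HEPES pH 7.4 buffer with NaCl, MgCl2, saponin and BSA, 30 min at room temperature. Gαs-bound label captured by anti-Gαs antibody/SPA beads and counted; EC50 from four-parameter logistic fit.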

Assay [5] deals with T4, gastric inhibitory peptide receptor (GIPR) (Homo sapiens, UniProt P48546).
T4 sequence (P48546 22-466): T3 sequence (P48546 22-466)
The experiment in a line: cAMP pharmacological functional assay in presence of casein, hGIPR. In kind it is cell-based.

human GLP-1 receptor (GLP-1R), sequence (P43220 24-463): as the sequence (P43220 24-463) above

Usually EC50 stands for the midpoint of the concentration-response curve. What is called Ki is the dissociation constant of the complex between target and ligand, obtained from inhibition or displacement. For the molecule `CC[C@H](C)[C@H](NC(=O)[C@H](CC(C)C)NC(=O)[C@H](Cc1ccc(O)cc1)NC(=O)[C@H](CCC(=O)O)NC(=O)[C@@H](NC(=O)[C@H](Cc1ccccc1)NC(=O)[C@H](C)NC(=O)C(C)(C)NC(=O)[C@H](CCC(N)=O)NC(=O)[C@H](C)NC(=O)[C@H](CCCCNC(=O)COCCOCCNC(=O)COCCOCCNC(=O)CC[C@H](NC(=O)CCCCCCCCCCCCCCCCCCC(=O)O)C(=O)O)NC(=O)[C@H](CCCCN)NC(=O)[C@H](CC(=O)O)NC(=O)[C@H](CC(C)C)NC(=O)[C@](C)(CC(C)C)NC(=O)[C@@H](NC(=O)[C@H](CO)NC(=O)[C@H](Cc1ccc(O)cc1)NC(=O)[C@H](CC(=O)O)NC(=O)[C@H](CO)NC(=O)[C@@H](NC(=O)[C@H](Cc1ccccc1)NC(=O)[C@@H](NC(=O)CNC(=O)[C@H](CCC(=O)O)NC(=O)C(C)(C)NC(=O)[C@H](N)Cc1ccc(O)cc1)[C@@H](C)O)[C@@H](C)O)[C@@H](C)CC)[C@@H](C)CC)C(=O)N[C@@H](CCC(=O)O)C(=O)NCC(=O)NCC(=O)N1CCC[C@H]1C(=O)N[C@@H](CO)C(=O)N[C@@H](CO)C(=O)NCC(=O)N[C@@H](C)C(=O)N1CCC[C@H]1C(=O)N1CCC[C@H]1C(=O)N1CCC[C@H]1C(=O)N[C@@H](CO)C(N)=O` [Example 334], the EC50 on human GLP-1R [1] (CHO-K1 cells, 0.1% w/v hydrolyzed Casein, read-out: hGLP1R B-Arrestin2 Rel EC50) was over 10.3 µM; on human GLP-1R [1] (CHO-K1 cells, PathHunter β-arrestin-2 recruitment, 0.1% casein, read-out: hGLP1R B-Arrestin2 Rel EC50 uM (SEM, n)), over 10.3 µM; in assay [3] (HEK293 cells expressing hGLP-1R, 0.1% Casein, geometric mean, read-out: hGLP1R cAMP Rel EC50 nM (SEM, n)), 0.303 nM; on human GLP-1R [4] (HEK293 cell membranes expressing human GLP-1R, [35S]GTPγS binding, read-out: hGLP1R GTPgS Rel EC50 nM (SEM, n)), 0.432 nM; in assay [5] (HEK293 cells expressing hGIPR, 0.1% Casein, geometric mean, read-out: hGIPR cAMP Rel EC50 nM (SEM, n)), 0.0718 nM. Further, the Ki at human Gcg receptor (read-out: hGLcgR Ki, nM (SEM, n)) is 192 nM; on human GLP-1R [2] (read-out: hGLP1R Ki, (nM) (SEM, n)), 2.17 nM; at human GIP receptor (read-out: hGIPR Ki, nM (SEM, n)), 0.0646 nM.

With `CC[C@H](C)[C@H](NC(=O)[C@H](CC(C)C)NC(=O)[C@H](Cc1ccc(O)cc1)NC(=O)[C@H](CCC(=O)O)NC(=O)[C@@H](NC(=O)[C@H](Cc1ccccc1)NC(=O)[C@H](C)NC(=O)C(C)(C)NC(=O)[C@H](CCC(N)=O)NC(=O)[C@H](C)NC(=O)[C@H](CCCCNC(=O)COCCOCCNC(=O)COCCOCCNC(=O)CC[C@H](NC(=O)CCCCCCCCCCCCCCCCCCC(=O)O)C(=O)O)NC(=O)[C@H](CCCCN)NC(=O)[C@H](CC(=O)O)NC(=O)[C@H](CC(C)C)NC(=O)[C@](C)(CC(C)C)NC(=O)[C@@H](NC(=O)[C@H](CO)NC(=O)[C@H](Cc1ccc(O)cc1)NC(=O)[C@H](CC(=O)O)NC(=O)[C@H](CO)NC(=O)[C@@H](NC(=O)[C@](C)(Cc1ccccc1)NC(=O)[C@@H](NC(=O)CNC(=O)[C@H](CCC(=O)O)NC(=O)C(C)(C)NC(=O)[C@H](N)Cc1ccc(O)cc1)[C@@H](C)O)[C@@H](C)O)[C@@H](C)CC)[C@@H](C)CC)C(=O)N[C@@H](CCC(=O)O)C(=O)NCC(=O)NCC(=O)N1CCC[C@H]1C(=O)N[C@@H](CO)C(=O)N[C@@H](CO)C(=O)NCC(=O)N[C@@H](C)C(=O)N1CCC[C@H]1C(=O)N1CCC[C@H]1C(=O)N1CCC[C@H]1C(=O)N[C@@H](CO)C(N)=O` [Example 335], the concentration for a half-maximal effect (EC50) was 0.00531 µM at human GLP-1R [1], 0.122 nM in assay [3], 0.285 nM on human GLP-1R [4] and 0.0477 nM in assay [5]. Further, the “hGLP1R B-Arrestin2 % Top” value on human GLP-1R [1] (normalized to GLP-1 maximum control) stood at 73%. The Ki is 27.1 nM at human Gcg receptor, 2.54 nM at human GLP-1R [2] and 0.0444 nM at human GIP receptor.
